Converted amounts (≈) assume the structure as drawn. The source made the active and inactive calls. The rule behind the calls is not given here.
Key:
[1] = test system: Pseudomonas aeruginosa; experiment: Antibacterial activity against Pseudomonas aeruginosa MTCC 7952 after 24 hrs by serial dilution method relative to 11,12-Diphenyl-11a,12-dihydro-11H-indeno[2,1-c][1,5]benzothiazepine; type: functional
[2] = test system: Pseudomonas aeruginosa; experiment: Antibacterial activity against Pseudomonas aeruginosa MTCC 7952 after 24 hrs by serial dilution method; type: functional; conditions: for MIC: Pseudomonas aeruginosa, MTCC 7952, 24 h
[3] = test system: Aspergillus fumigatus; experiment: Antifungal activity against Aspergillus fumigatus MTCC 2550 after 72 hrs by serial dilution method relative to 11,12-Diphenyl-11a,12-dihydro-11H-indeno[2,1-c][1,5]benzothiazepine; type: functional
[4] = test system: Escherichia coli; experiment: Antibacterial activity against Escherichia coli MTCC 42 after 24 hrs by serial dilution method; type: functional; conditions: for MIC: Escherichia coli, MTCC 42, 24 h
[5] = test system: Bacillus subtilis
[6] = Octanol-water partition coefficient, log P of the compound; type: physicochemical
[7] = test system: Escherichia coli; experiment: Antibacterial activity against Escherichia coli MTCC 42 after 24 hrs by serial dilution method relative to 11,12-Diphenyl-11a,12-dihydro-11H-indeno[2,1-c][1,5]benzothiazepine; type: functional
[8] = test system: Candida albicans; experiment: Antifungal activity against Candida albicans MTCC 183 after 72 hrs by serial dilution method; type: functional; conditions: for MIC: Candida albicans, MTCC 183, 72 h
[9] = test system: Staphylococcus aureus; experiment: Antibacterial activity against Staphylococcus aureus MTCC 7443 after 24 hrs by serial dilution method relative to 11,12-Diphenyl-11a,12-dihydro-11H-indeno[2,1-c][1,5]benzothiazepine; type: functional
[10] = test system: Bacillus subtilis; experiment: Antibacterial activity against Bacillus subtilis MTCC 441 after 24 hrs by serial dilution method relative to 11,12-Diphenyl-11a,12-dihydro-11H-indeno[2,1-c][1,5]benzothiazepine; type: functional
[11] = test system: Candida albicans; experiment: Antifungal activity against Candida albicans MTCC 183 after 72 hrs by serial dilution method relative to 11,12-Diphenyl-11a,12-dihydro-11H-indeno[2,1-c][1,5]benzothiazepine; type: functional
[12] = test system: Bacillus subtilis; experiment: microbe, parasite or virus in culture; conditions: MTCC 441, 24 h
[13] = test system: Aspergillus fumigatus; experiment: Antifungal activity against Aspergillus fumigatus MTCC 2550 after 72 hrs by serial dilution method; type: functional; conditions: for MIC: Aspergillus fumigatus, MTCC 2550, 72 h
[14] = test system: Staphylococcus aureus; experiment: Antibacterial activity against Staphylococcus aureus MTCC 7443 after 24 hrs by serial dilution method; type: functional; conditions: for MIC: Staphylococcus aureus, MTCC 7443, 24 h

SMILES	Activity [1] [%]	-logMIC [2]	MIC [2] [µM]	Activity [3] [%]	-logMIC [4]	MIC [4] [µM]	-logMIC [5]	logP [6]	Activity [7] [%]	-logMIC [8]	MIC [8] [µM]	Activity [9] [%]	Activity [10] [%]	Activity [11] [%]	MIC [12] [µM]	-logMIC [13]	MIC [13] [µM]	-logMIC [14]	MIC [14] [µM]	also measured
COc1ccc(C2Sc3cc(Cl)ccc3N=C3c4ccccc4C(c4ccccc4)C32)cc1 (centres undefined)	89.33	2.18	6.6 (≈ 3.09 µg/mL)	78.45	1.57	26.7 (≈ 12.5 µg/mL)	1.27	7.23	78.45	1.88	13.3 (≈ 6.22 µg/mL)	78.51	13.73	78.51	53.4 (≈ 25 µg/mL)	1.57	26.7 (≈ 12.5 µg/mL)	1.88	13.3 (≈ 6.22 µg/mL)	
COc1ccc(C2Sc3cc(C)ccc3N=C3c4ccccc4C(c4ccccc4)C32)cc1 (centres undefined)	9.85	1.25	55.8 (≈ 25 µg/mL)	9.84	0.95	112 (≈ 50 µg/mL)	1.25	7.18	9.84	0.95	112 (≈ 50 µg/mL)	54.92	9.85	-80.45	55.8 (≈ 25 µg/mL)	0.95	112 (≈ 50 µg/mL)	1.55	27.9 (≈ 12.5 µg/mL)	
OC(Cn1cncn1)(Cn1cncn1)c1ccc(F)cc1F [FLUCONAZOLE]											10.1 (≈ 3.09 µg/mL)						10.1 (≈ 3.09 µg/mL)			
COc1ccc2c(c1)SC(c1ccccc1)C1C(=N2)c2ccccc2C1c1ccccc1 (centres undefined)	6.94	1.24	57.6 (≈ 25 µg/mL)	53.51	1.54	28.8 (≈ 12.5 µg/mL)	1.24	6.71	76.75	0.94	115 (≈ 50 µg/mL)	76.73	6.94	-86.26	57.6 (≈ 25 µg/mL)	1.24	57.6 (≈ 25 µg/mL)	1.84	14.4 (≈ 6.24 µg/mL)	
Clc1ccc(C2Sc3ccccc3N=C3c4ccccc4C(c4ccccc4)C32)cc1 (centres undefined)	-84.32	0.94	114 (≈ 50 µg/mL)	53.99	1.24	57 (≈ 25 µg/mL)	2.15	7.48	53.99	0.94	114 (≈ 50 µg/mL)	53.95	88.52	-84.32	7.1 (≈ 3.11 µg/mL)	1.24	57 (≈ 25 µg/mL)	1.55	28.5 (≈ 12.5 µg/mL)	
COc1ccc(C2Sc3cc(OC)ccc3N=C3c4ccccc4C(c4ccccc4)C32)cc1 (centres undefined)	-74.15	0.97	108 (≈ 50 µg/mL)	89.18	1.57	26.9 (≈ 12.5 µg/mL)	1.27	6.46	78.28	1.87	13.4 (≈ 6.21 µg/mL)	89.17	12.92	78.35	53.9 (≈ 25 µg/mL)	1.87	13.4 (≈ 6.21 µg/mL)	2.17	6.7 (≈ 3.11 µg/mL)	
Cc1ccc(C2Sc3ccccc3N=C3c4ccccc4C(c4ccccc4)C32)cc1 (centres undefined)					0.92	120 (≈ 50 µg/mL)	1.22	7.43	3.38			-93.37	3.39		59.8 (≈ 25 µg/mL)			0.92	120 (≈ 50 µg/mL)	Activity [2]: inactive; Activity [8]: inactive; Activity [13]: inactive
CN[C@@H]1[C@H](O[C@H]2[C@H](O[C@H]3[C@H](O)[C@@H](O)[C@H](N=C(N)N)[C@@H](O)[C@@H]3N=C(N)N)O[C@@H](C)[C@]2(O)C=O)O[C@@H](CO)[C@H](O)[C@H]1O [STREPTOMYCIN]			2.6 (≈ 1.51 µg/mL)			5.3 (≈ 3.08 µg/mL)									10.7 (≈ 6.22 µg/mL)				10.7 (≈ 6.22 µg/mL)	
